Measurements: patent US5935983A, “Use of phenylcyclohexylcarboxamides” (Bayer Aktiengesellschaft, priority 1995, dated 1999)

System: smooth muscle cells obtained from the aortas of pigs
Test: inhibition of the proliferation of smooth muscle cells (3H-thymidine incorporation)
Format: cell-based, pig
Conditions: Sus scrofa; porcine aortic smooth muscle cells; half-maximal inhibition of the thymidine incorporation produced by 10% FCS; 3H-thymidine added after 16-20 h, further 4 h
Procedure: Investigation of the inhibition of the proliferation of smooth muscle cells by the compounds according to the invention
To determine the antiproliferative action of the compounds, smooth muscle cells are used which are obtained from the aortas of pigs by the media explant technique [R. Ross, J. Cell. Biol. 50, 172, 1971]. The cells are inoculated into suitable culture dishes, as a rule 96-hole plates, and cultured at 37° C. in 5% CO2 for 2-3 days in medium 199 containing 7.5% FCS and 7.5% NCS, 2 mM L-glutamine and 15 mM HEPES, pH 7.4. The cells are then synchronized by serum withdrawal for 2-3 days and then stimulated to growth using serum or other factors. Test compounds are added simultaneously. After 16-20 hours, ^3 H-thymidine is added and after a further 4 hours the incorporation of this substance into the TCA-precipitable DNA of the cells is determined. To determine the IC50 values, the active compound concentration is calculated which, on sequential dilution of the active compound, causes half-maximal inhibition of the thymidine incorporation produced by 10% FCS.

NC(=O)C(NC(=O)C1CCCCC1c1ccc(Cn2c(C3CC3)nc3ccccc32)cc1)c1ccccc1 (stereo not shown) [Example 16]
IC50: 0.28 nM
